{"source": "patent US7700560B2", "about": "(University of Maryland, Baltimore County, priority 2003, dated 2010)", "origin": "cited, not measured here", "key": {"[1]": {"tested_on": "DMS114 lung and DU145 prostate xenografts", "settings": "dicyclopentyl diester; cited from earlier work"}, "[2]": {"tested_on": "lung tumor cell lines NCI-H460, NCI-H226, A549, NCI-H23, DMS273, DMS114, NCI-H522", "settings": "dicyclopentyl diester; cited from earlier work"}}}
{"smiles": "NC(CCC(=O)NC(CSCc1ccc(Br)cc1)C(=O)NCC(=O)OC1CCCC1)C(=O)OC1CCCC1", "note": "(centres unmarked)", "values": [{"measurement": "inhibition of DMS144 and human prostate DU145 xenografts in nude mice", "setting": "[1]", "result": "effectively inhibited"}, {"measurement": "inhibition of lung tumor cell lines in vitro", "setting": "[2]", "result": "effectively inhibited"}]}
